Test results: ChEMBL document CHEMBL4251689, “Azabicyclic Fused Pyrimidine Derivatives Useful for the Treatment of Alzheimer's Disease” (ACS Med Chem Lett, 2018)

What follows are compounds tested against Gamma-secretase (assay: Inhibition of gamma-secretase (unknown origin) assessed as reduction in amyloid beta (1 to 42) production after 60 mins by cell based AlphaLisa assay).
Set-up: species or system Homo sapiens
`CNc1nc(N[C@@H]2[C@@H]3CC[C@H]2CN(c2cc(C)ncn2)C3)nc2c1C(C)(C)CN2C1CC(F)(F)C1` gave an EC50 of 36 nM. `CNc1nc(N[C@@H]2[C@@H]3CC[C@H]2CN(c2cc(C)ncn2)C3)nc2c1C(C)(C)CN2c1ccc(F)cc1` gave an EC50 of 14 nM. Compound `CNc1nc(N[C@@H]2[C@@H]3CC[C@H]2CN(c2cc(C)ncn2)C3)nc2c1C(C)(C)CN2C12CC(C(F)(F)F)(C1)C2` has an EC50 of 111 nM. In the case of `CNc1nc(N[C@@H]2[C@@H]3CC[C@H]2CN(c2nnc(C)o2)C3)nc2c1C(C)(C)CN2c1ccc(F)cc1`, the EC50 is reported as 34 nM. In the case of `CNc1nc(N[C@@H]2[C@@H]3CC[C@H]2CN(c2ccnnc2)C3)nc2c1C(C)(C)CN2c1ccc(F)cc1`, the EC50 is reported as 19 nM. `CNc1nc(N[C@@H]2[C@@H]3CC[C@H]2CN(c2cc(C)ncn2)C3)nc2c1C(C)(C)CCN2c1ccc(F)cc1` was tested, and the EC50 was 35 nM.
